# Patent US9340590B2 (priority 2011, dated 2016)
# Positions of bridges follow the written chain, without caps; N, C: chain ends. Non-standard residues stand in square brackets, D forms with d. Residues, ends and D or L forms follow the SMILES beside them. Arg(Me) = CNC(=N)NCCC[C@H](N)C(=O)O; hCit = NC(=O)NCCCC[C@H](N)C(=O)O; Cit = NC(=O)NCCC[C@H](N)C(=O)O; Orn = NCCC[C@H](N)C(=O)O; Dap = NC[C@H](N)C(=O)O
# Tests used:
# Assay in all cases: cell-based
# hNav1.5 = hNav1.5 (Homo sapiens, UniProt Q14524); conditions: IonWorks Quattro, use-dependent block, hNav1.5; read-out: IWQ Use Nav1.5
# hNav1.3 = hNav1.3 (Homo sapiens, UniProt Q9NY46); conditions: IonWorks Quattro, use-dependent block, hNav1.3; read-out: IWQ Use Nav1.3
# hNav1.7 = hNav1.7 (Homo sapiens, UniProt Q15858); type: cell-based; conditions: IonWorks Quattro, use-dependent block, hNav1.7; read-out: IWQ Use Nav1.7
# hNav1.7, sequence (Q15858 whole entry, looked up): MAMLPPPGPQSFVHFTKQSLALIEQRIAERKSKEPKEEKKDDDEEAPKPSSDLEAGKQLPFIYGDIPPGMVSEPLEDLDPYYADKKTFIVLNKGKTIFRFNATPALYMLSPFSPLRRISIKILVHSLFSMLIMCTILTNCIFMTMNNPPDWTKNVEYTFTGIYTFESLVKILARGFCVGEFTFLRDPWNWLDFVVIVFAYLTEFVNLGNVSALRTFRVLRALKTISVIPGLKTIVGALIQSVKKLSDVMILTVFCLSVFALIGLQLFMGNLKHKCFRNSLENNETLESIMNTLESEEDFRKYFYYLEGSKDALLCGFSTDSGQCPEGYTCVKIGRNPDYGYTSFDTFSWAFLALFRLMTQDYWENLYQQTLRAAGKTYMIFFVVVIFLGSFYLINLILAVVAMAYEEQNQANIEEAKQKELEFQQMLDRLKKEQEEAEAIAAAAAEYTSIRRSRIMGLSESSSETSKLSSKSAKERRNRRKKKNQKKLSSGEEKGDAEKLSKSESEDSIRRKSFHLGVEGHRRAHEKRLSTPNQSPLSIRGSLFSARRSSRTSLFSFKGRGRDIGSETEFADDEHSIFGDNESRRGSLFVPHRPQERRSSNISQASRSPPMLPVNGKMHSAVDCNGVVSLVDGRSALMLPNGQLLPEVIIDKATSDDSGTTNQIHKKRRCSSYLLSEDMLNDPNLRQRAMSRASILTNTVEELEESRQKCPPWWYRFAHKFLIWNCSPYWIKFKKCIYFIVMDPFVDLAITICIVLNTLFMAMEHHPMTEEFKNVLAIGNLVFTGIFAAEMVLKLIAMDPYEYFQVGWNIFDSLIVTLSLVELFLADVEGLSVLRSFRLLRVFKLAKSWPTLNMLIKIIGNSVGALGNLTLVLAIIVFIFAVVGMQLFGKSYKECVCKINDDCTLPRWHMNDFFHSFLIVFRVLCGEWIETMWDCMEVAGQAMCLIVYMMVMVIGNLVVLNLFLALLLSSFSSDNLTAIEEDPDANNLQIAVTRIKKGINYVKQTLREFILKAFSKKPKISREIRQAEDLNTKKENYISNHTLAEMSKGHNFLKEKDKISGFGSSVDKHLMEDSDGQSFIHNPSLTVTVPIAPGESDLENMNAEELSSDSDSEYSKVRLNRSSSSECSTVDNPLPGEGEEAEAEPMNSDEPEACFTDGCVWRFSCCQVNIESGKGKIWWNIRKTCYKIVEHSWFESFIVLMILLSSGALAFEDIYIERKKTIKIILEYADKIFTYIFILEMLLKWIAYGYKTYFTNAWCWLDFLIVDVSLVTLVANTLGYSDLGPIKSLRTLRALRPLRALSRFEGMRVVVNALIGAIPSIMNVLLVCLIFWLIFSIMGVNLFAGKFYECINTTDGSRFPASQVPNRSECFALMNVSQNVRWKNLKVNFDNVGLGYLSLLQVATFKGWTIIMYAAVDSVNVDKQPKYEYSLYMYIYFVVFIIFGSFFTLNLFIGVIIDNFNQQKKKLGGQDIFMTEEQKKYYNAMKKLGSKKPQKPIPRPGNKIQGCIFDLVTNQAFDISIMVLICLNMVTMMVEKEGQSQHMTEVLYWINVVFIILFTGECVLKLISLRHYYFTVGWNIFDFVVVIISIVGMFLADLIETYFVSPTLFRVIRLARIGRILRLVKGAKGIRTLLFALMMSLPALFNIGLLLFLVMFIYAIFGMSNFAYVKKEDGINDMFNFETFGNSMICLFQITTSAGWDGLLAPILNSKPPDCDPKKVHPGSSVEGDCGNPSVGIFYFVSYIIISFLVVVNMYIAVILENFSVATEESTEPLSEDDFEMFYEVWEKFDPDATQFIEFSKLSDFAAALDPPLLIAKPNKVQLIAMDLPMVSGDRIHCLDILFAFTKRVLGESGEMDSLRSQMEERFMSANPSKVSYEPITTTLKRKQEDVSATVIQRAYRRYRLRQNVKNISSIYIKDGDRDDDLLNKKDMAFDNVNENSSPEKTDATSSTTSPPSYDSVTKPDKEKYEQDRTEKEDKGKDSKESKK
# hNav1.3, sequence (Q9NY46 whole entry, looked up): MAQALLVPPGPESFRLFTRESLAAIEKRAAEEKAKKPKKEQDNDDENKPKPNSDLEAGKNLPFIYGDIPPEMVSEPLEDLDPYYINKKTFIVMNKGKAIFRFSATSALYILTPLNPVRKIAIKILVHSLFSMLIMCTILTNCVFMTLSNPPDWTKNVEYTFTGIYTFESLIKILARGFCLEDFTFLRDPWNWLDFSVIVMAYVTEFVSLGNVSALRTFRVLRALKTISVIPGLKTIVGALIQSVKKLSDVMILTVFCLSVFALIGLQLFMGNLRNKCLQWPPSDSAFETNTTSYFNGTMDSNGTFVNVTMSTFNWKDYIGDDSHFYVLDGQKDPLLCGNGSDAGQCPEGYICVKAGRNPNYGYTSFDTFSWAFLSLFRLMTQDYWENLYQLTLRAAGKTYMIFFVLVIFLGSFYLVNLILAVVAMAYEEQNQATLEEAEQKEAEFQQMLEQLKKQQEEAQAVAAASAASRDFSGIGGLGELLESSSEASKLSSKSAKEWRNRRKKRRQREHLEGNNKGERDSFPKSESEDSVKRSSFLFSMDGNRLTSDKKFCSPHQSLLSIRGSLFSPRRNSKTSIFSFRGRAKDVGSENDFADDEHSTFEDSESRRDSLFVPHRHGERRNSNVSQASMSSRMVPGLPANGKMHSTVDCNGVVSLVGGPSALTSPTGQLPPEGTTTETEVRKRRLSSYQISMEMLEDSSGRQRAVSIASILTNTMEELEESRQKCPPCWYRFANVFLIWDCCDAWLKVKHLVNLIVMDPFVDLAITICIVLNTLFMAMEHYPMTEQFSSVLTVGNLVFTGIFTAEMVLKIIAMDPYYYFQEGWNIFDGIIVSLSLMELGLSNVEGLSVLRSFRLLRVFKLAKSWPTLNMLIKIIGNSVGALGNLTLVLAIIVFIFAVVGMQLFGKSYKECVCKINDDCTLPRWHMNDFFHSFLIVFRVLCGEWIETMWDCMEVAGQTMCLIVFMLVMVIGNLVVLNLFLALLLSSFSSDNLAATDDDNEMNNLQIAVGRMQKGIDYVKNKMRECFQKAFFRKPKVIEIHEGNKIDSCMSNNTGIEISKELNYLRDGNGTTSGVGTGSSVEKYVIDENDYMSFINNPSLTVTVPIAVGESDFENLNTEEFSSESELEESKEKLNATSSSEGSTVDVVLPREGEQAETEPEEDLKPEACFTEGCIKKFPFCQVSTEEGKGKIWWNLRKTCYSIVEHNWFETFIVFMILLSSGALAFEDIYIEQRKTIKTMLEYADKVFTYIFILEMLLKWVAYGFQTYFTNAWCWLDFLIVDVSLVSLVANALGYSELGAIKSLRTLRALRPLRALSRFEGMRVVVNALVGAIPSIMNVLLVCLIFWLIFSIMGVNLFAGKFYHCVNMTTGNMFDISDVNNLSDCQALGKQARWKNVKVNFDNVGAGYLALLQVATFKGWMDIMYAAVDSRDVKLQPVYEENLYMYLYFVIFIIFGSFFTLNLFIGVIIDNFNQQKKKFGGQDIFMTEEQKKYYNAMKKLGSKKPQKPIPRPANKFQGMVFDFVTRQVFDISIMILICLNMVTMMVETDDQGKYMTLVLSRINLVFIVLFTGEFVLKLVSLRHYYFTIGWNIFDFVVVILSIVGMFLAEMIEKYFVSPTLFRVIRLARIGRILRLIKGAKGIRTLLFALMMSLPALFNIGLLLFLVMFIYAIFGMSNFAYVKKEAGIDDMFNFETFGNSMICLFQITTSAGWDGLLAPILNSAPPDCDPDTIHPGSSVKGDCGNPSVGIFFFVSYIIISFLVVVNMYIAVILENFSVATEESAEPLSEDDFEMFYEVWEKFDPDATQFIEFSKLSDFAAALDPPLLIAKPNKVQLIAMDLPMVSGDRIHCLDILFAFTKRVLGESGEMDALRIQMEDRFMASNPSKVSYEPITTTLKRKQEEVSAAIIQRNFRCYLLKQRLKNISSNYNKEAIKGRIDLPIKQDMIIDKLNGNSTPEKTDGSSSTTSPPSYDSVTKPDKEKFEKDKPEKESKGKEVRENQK
Compound,IC50 (hNav1.5) [µM],IC50 (hNav1.3) [µM],IC50 (hNav1.7) [µM]
"CC[C@H](C)[C@@H]1NC(=O)[C@@H]2CSSC[C@@H]3NC(=O)[C@H](C(C)C)NC(=O)[C@H](CC(C)C)NC(=O)[C@H](CC(N)=O)NC(=O)[C@@H]4CCCN4C(=O)[C@H](CCCNC(=N)N)NC(=O)[C@H](CSSC[C@H](NC(=O)[C@@H](N)CC(=O)O)C(=O)N[C@@H](CC(C)C)C(=O)NCC(=O)N[C@@H](C)C(=O)N[C@@H](CCSC)C(=O)N[C@@H](CCCNC(=N)N)C(=O)N[C@@H](CCCCN)C(=O)N2)NC(=O)[C@H](CSSC[C@@H](C(=O)N[C@@H](CCCCN)C(=O)N[C@@H](Cc2ccc(O)cc2)C(=O)N[C@H](C(=O)N[C@@H](Cc2ccccc2)C(N)=O)C(C)C)NC(=O)[C@H](Cc2c[nH]c4ccccc24)NC(=O)[C@H](CCCNC(=N)NC)NC(=O)[C@H](Cc2c[nH]cn2)NC(=O)[C@H]([C@@H](C)O)NC(=O)[C@H](CCCNC(=N)N)NC(=O)[C@H](CO)NC3=O)NC(=O)[C@H](CCCCN)NC(=O)[C@H](CC(=O)O)NC(=O)[C@H](CC(N)=O)NC(=O)[C@H](CC(=O)O)NC(=O)[C@@H]2CCCN2C1=O [compound 745] (H-DCLGAMRKCIPDNDKCCRPNLVCSRTH[Arg(Me)]WCKYVF-NH2; disulfide 2-17, 9-23, 16-30)",40,0.5,0.25
"CC[C@H](C)[C@@H]1NC(=O)[C@@H]2CSSC[C@@H]3NC(=O)[C@H](C(C)C)NC(=O)[C@H](CC(C)C)NC(=O)[C@H](CC(N)=O)NC(=O)[C@@H]4CCCN4C(=O)[C@H](CCCNC(=N)N)NC(=O)[C@H](CSSC[C@H](NC(=O)[C@@H](N)CC(=O)O)C(=O)N[C@@H](CC(C)C)C(=O)NCC(=O)N[C@@H](C)C(=O)N[C@@H](CCSC)C(=O)N[C@@H](CCCNC(=N)N)C(=O)N[C@@H](CCCCN)C(=O)N2)NC(=O)[C@H](CSSC[C@@H](C(=O)N[C@@H](CCCCN)C(=O)N[C@@H](Cc2ccc(O)cc2)C(=O)N[C@H](C(=O)N[C@@H](Cc2ccccc2)C(N)=O)C(C)C)NC(=O)[C@H](Cc2c[nH]c4ccccc24)NC(=O)[C@H](CCCN)NC(=O)[C@H](Cc2c[nH]cn2)NC(=O)[C@H]([C@@H](C)O)NC(=O)[C@H](CCCNC(=N)N)NC(=O)[C@H](CO)NC3=O)NC(=O)[C@H](CCCCN)NC(=O)[C@H](CC(=O)O)NC(=O)[C@H](CC(N)=O)NC(=O)[C@H](CC(=O)O)NC(=O)[C@@H]2CCCN2C1=O [compound 746] (H-DCLGAMRKCIPDNDKCCRPNLVCSRTH[Orn]WCKYVF-NH2; disulfide 2-17, 9-23, 16-30)",20.7,0.76,0.29
"CC[C@H](C)[C@@H]1NC(=O)[C@@H]2CSSC[C@@H]3NC(=O)[C@H](C(C)C)NC(=O)[C@H](CC(C)C)NC(=O)[C@H](CC(N)=O)NC(=O)[C@@H]4CCCN4C(=O)[C@H](CCCNC(=N)N)NC(=O)[C@H](CSSC[C@H](NC(=O)[C@@H](N)CC(=O)O)C(=O)N[C@@H](CC(C)C)C(=O)NCC(=O)N[C@@H](C)C(=O)N[C@@H](CCSC)C(=O)N[C@@H](CCCNC(=N)N)C(=O)N[C@@H](CCCCN)C(=O)N2)NC(=O)[C@H](CSSC[C@@H](C(=O)N[C@@H](CCCCN)C(=O)N[C@@H](Cc2ccc(O)cc2)C(=O)N[C@H](C(=O)N[C@@H](Cc2ccccc2)C(N)=O)C(C)C)NC(=O)[C@H](Cc2c[nH]c4ccccc24)NC(=O)[C@H](CN)NC(=O)[C@H](Cc2c[nH]cn2)NC(=O)[C@H]([C@@H](C)O)NC(=O)[C@H](CCCNC(=N)N)NC(=O)[C@H](CO)NC3=O)NC(=O)[C@H](CCCCN)NC(=O)[C@H](CC(=O)O)NC(=O)[C@H](CC(N)=O)NC(=O)[C@H](CC(=O)O)NC(=O)[C@@H]2CCCN2C1=O [compound 747] (H-DCLGAMRKCIPDNDKCCRPNLVCSRTH[Dap]WCKYVF-NH2; disulfide 2-17, 9-23, 16-30)",38.3,0.78,0.37
"CC[C@H](C)[C@@H]1NC(=O)[C@@H]2CSSC[C@@H]3NC(=O)[C@H](C(C)C)NC(=O)[C@H](CC(C)C)NC(=O)[C@H](CC(N)=O)NC(=O)[C@@H]4CCCN4C(=O)[C@H](CCCNC(=N)N)NC(=O)[C@H](CSSC[C@H](NC(=O)[C@@H](N)CC(=O)O)C(=O)N[C@@H](CC(C)C)C(=O)NCC(=O)N[C@@H](C)C(=O)N[C@@H](CCSC)C(=O)N[C@@H](CCCNC(=N)N)C(=O)N[C@@H](CCCCN)C(=O)N2)NC(=O)[C@H](CSSC[C@@H](C(=O)N[C@@H](CCCCN)C(=O)N[C@@H](Cc2ccc(O)cc2)C(=O)N[C@H](C(=O)N[C@@H](Cc2ccccc2)C(N)=O)C(C)C)NC(=O)[C@H](Cc2c[nH]c4ccccc24)NC(=O)[C@H](CCCNC(N)=O)NC(=O)[C@H](Cc2c[nH]cn2)NC(=O)[C@H]([C@@H](C)O)NC(=O)[C@H](CCCNC(=N)N)NC(=O)[C@H](CO)NC3=O)NC(=O)[C@H](CCCCN)NC(=O)[C@H](CC(=O)O)NC(=O)[C@H](CC(N)=O)NC(=O)[C@H](CC(=O)O)NC(=O)[C@@H]2CCCN2C1=O [compound 748] (H-DCLGAMRKCIPDNDKCCRPNLVCSRTH[Cit]WCKYVF-NH2; disulfide 2-17, 9-23, 16-30)",24.2,2.7,0.87
"CC[C@H](C)[C@@H]1NC(=O)[C@@H]2CSSC[C@@H]3NC(=O)[C@H](C(C)C)NC(=O)[C@H](CC(C)C)NC(=O)[C@H](CC(N)=O)NC(=O)[C@@H]4CCCN4C(=O)[C@H](CCCNC(=N)N)NC(=O)[C@H](CSSC[C@H](NC(=O)[C@@H](N)CC(=O)O)C(=O)N[C@@H](CC(C)C)C(=O)NCC(=O)N[C@@H](C)C(=O)N[C@@H](CCSC)C(=O)N[C@@H](CCCNC(=N)N)C(=O)N[C@@H](CCCCN)C(=O)N2)NC(=O)[C@H](CSSC[C@@H](C(=O)N[C@@H](CCCCN)C(=O)N[C@@H](Cc2ccc(O)cc2)C(=O)N[C@H](C(=O)N[C@@H](Cc2ccccc2)C(N)=O)C(C)C)NC(=O)[C@H](Cc2c[nH]c4ccccc24)NC(=O)[C@H](CCCCNC(N)=O)NC(=O)[C@H](Cc2c[nH]cn2)NC(=O)[C@H]([C@@H](C)O)NC(=O)[C@H](CCCNC(=N)N)NC(=O)[C@H](CO)NC3=O)NC(=O)[C@H](CCCCN)NC(=O)[C@H](CC(=O)O)NC(=O)[C@H](CC(N)=O)NC(=O)[C@H](CC(=O)O)NC(=O)[C@@H]2CCCN2C1=O [compound 749] (H-DCLGAMRKCIPDNDKCCRPNLVCSRTH[hCit]WCKYVF-NH2; disulfide 2-17, 9-23, 16-30)",20.3,2.3,0.79
"CC[C@H](C)[C@@H]1NC(=O)[C@@H]2CSSC[C@@H]3NC(=O)[C@H](C(C)C)NC(=O)[C@H](CC(C)C)NC(=O)[C@H](CC(N)=O)NC(=O)[C@@H]4CCCN4C(=O)[C@H](CCCNC(=N)N)NC(=O)[C@H](CSSC[C@H](NC(=O)[C@@H](N)CC(=O)O)C(=O)N[C@@H](CC(C)C)C(=O)NCC(=O)NCC(=O)N[C@@H](C(C)C)C(=O)N[C@@H](CCCNC(=N)N)C(=O)N[C@@H](CCCCN)C(=O)N2)NC(=O)[C@H](CSSC[C@@H](C(=O)N[C@@H](CCCCN)C(=O)N[C@@H](Cc2ccc(O)cc2)C(=O)N[C@H](C(=O)N[C@@H](Cc2ccccc2)C(N)=O)C(C)C)NC(=O)[C@H](Cc2c[nH]c4ccccc24)NC(=O)[C@H](CCCCN)NC(=O)[C@H](Cc2c[nH]cn2)NC(=O)[C@H]([C@@H](C)O)NC(=O)[C@H](CCCNC(=N)N)NC(=O)[C@H](CO)NC3=O)NC(=O)[C@H](CCCCN)NC(=O)[C@H](CC(=O)O)NC(=O)[C@H](CC(N)=O)NC(=O)[C@H](CC(=O)O)NC(=O)[C@@H]2CCCN2C1=O [compound 751] (H-DCLGGVRKCIPDNDKCCRPNLVCSRTHKWCKYVF-NH2; disulfide 2-17, 9-23, 16-30)",25.5,> 5,> 5
"CC[C@H](C)[C@@H]1NC(=O)CNC(=O)CNC(=O)[C@H](CC(C)C)NC(=O)[C@@H](NC(=O)[C@@H](N)CC(=O)O)CSSC[C@@H]2NC(=O)[C@@H]3CSSC[C@@H](C(=O)N[C@@H](CCCCN)C(=O)N[C@@H](Cc4ccc(O)cc4)C(=O)N[C@H](C(=O)N[C@@H](Cc4ccccc4)C(N)=O)C(C)C)NC(=O)[C@H](Cc4c[nH]c5ccccc45)NC(=O)[C@H](CCCCN)NC(=O)[C@H](Cc4c[nH]cn4)NC(=O)[C@H]([C@@H](C)O)NC(=O)[C@H](CCCNC(=N)N)NC(=O)[C@H](CO)NC(=O)[C@H](CSSC[C@H](NC(=O)[C@H](CCCCN)NC(=O)[C@H](CCCNC(=N)N)NC1=O)C(=O)N[C@@H]([C@@H](C)CC)C(=O)N1CCC[C@H]1C(=O)N[C@@H](CC(=O)O)C(=O)N[C@@H](CC(N)=O)C(=O)N[C@@H](CC(=O)O)C(=O)N[C@@H](CCCCN)C(=O)N3)NC(=O)[C@H](C(C)C)NC(=O)[C@H](CC(C)C)NC(=O)[C@H](CC(N)=O)NC(=O)[C@@H]1CCCN1C(=O)[C@H](CCCNC(=N)N)NC2=O [compound 752] (H-DCLGGIRKCIPDNDKCCRPNLVCSRTHKWCKYVF-NH2; disulfide 2-17, 9-23, 16-30)",25.4,> 5,> 5
"CC(C)C[C@@H]1NC(=O)[C@@H](NC(=O)[C@@H](N)CC(=O)O)CSSC[C@@H]2NC(=O)[C@@H]3CSSC[C@@H](C(=O)N[C@@H](CCCCN)C(=O)N[C@@H](Cc4ccc(O)cc4)C(=O)N[C@H](C(=O)N[C@@H](Cc4ccccc4)C(N)=O)C(C)C)NC(=O)[C@H](Cc4c[nH]c5ccccc45)NC(=O)[C@H](CCCCN)NC(=O)[C@H](Cc4c[nH]cn4)NC(=O)[C@H]([C@@H](C)O)NC(=O)[C@H](CCCNC(=N)N)NC(=O)[C@H](CO)NC(=O)[C@H](CSSC[C@H](NC(=O)[C@H](CCCCN)NC(=O)[C@H](CCCNC(=N)N)NC(=O)[C@H](Cc4ccccc4)NC(=O)CNC(=O)CNC1=O)C(=O)N[C@@H](CCC(=O)O)C(=O)N1CCC[C@H]1C(=O)N[C@@H](CC(=O)O)C(=O)N[C@@H](CC(N)=O)C(=O)N[C@@H](CC(=O)O)C(=O)N[C@@H](CCCCN)C(=O)N3)NC(=O)[C@H](C(C)C)NC(=O)[C@H](CC(C)C)NC(=O)[C@H](CC(N)=O)NC(=O)[C@@H]1CCCN1C(=O)[C@H](CCCNC(=N)N)NC2=O [compound 754] (H-DCLGGFRKCEPDNDKCCRPNLVCSRTHKWCKYVF-NH2; disulfide 2-17, 9-23, 16-30)",34.2,0.33,0.35
